# Measurements published in patent US7205387B2, “Recombinant polypeptide useful for neurotrophin receptor mediated gene delivery and as neurotrophin agonist” (Agency for Science, Technology and Research, priority 2003, dated 2007).
# Bridge positions count the residues as written; N and C are the ends. Ends that are not written are not given here.
# B1: SPKR4BL1-2: chimeric protein analogous to SPKR4NL1-2 with loops 1 and 2 of BDNF (aa 22–74) to bind TrkB (protein)
# chain: MGHHHHHHHHHHSSGHIEGRHMSPKRSPKRSPKRSPKRGGTYLSEDELKAAEAAFKRHNPTGSCSISEWVTAADKKTAVDMSGGTVTVLEKVPVSKGQLKQYFYETKCNPMGYTKEG
# modifications: SPKR4BL1-2
# Experiments:
# [1] = system: PC12 (TrkA and p75^NTR positive) cells; assay: Gene delivery in vitro (pCAGluc luciferase reporter), PC12 cells; type: cell-based, rat; details: for dose-response of transfection efficiency with increasing amount of peptide: 1 μg pCAGluc/well, 100 μM chloroquine
# Experimental: A PC12 (rat pheochromocytoma) cell line was obtained from ATCC (American Type Culture Collection, Manassas, Va., USA) and cultured in RPMI-1640 medium supplemented with 10% fetal bovine serum (FBS) and 5% horse serum. PC12 cells are known to express TrkA and p75^NTR receptors. A COS7 (African green monkey kidney fibroblast) cell line was obtained from ATCC and cultured in Dulbecco's modified Eagle's medium (DMEM) supplemented with 10% fetal bovine serum, 50 U/ml penicillin, and 50 μg/ml streptomycin. The cells were maintained in a 37° C., 5% CO2, humidified incubator.
# To determine the transfection efficiencies of our nucleic acid delivery systems, we employ a reporter plasmid, pCAGluc (a gift from Yoshiharu Matsuura, National Institute of Infectious Diseases, Tokyo, Japan), encoding firefly luciferase under the control of the composite promoter, CAG. CAG comprises the chicken β-actin promoter and the cytomegalovirus immediate early enhancer.
# TrkA-targeting gene delivery complexes were tested for transfection efficiency in vitro in PC12 (TrkA and p75^NTR positive) cells and COS7 (neurotrophin receptor negative) cells. The cells were grown to 50–70% confluency in microplate wells (24-, 48-, or 96-well plates). The gene delivery complexes were prepared according to specifications presented for each example. Transfection was accomplished by replacing the serum-enriched medium with half the usual volume of reduced-serum medium, Opti-MEM (Invitrogen), containing the gene delivery complexes. Where specifically mentioned, 100 μM of chloroquine was also added to help the complexes escape from endosomes. After four hours of incubation, the cells were restored to the normal medium volume and serum concentration, either by topping up with medium containing twice the usual serum concentration (RPMI-1640 with 20% FBS and 10% horse serum for PC12) or by completely replacing the medium.
# One to two days after transfection, the cell culture medium was removed and the cells were rinsed in phosphate-buffered saline (PBS). Enough Reporter Lysis Buffer (Promega, Wisconsin, Md., USA) to cover the bottom surface was added to each well (50 μl/well for 48-well plates). After one freeze-thaw cycle, the lysates were tested for luciferase activity using the Luciferase Assay System (Promega) and a single-tube luminometer (Berthold Lumat L B 9507, Bad Wildbad, Germany). The total protein concentration of each lysate was determined using the DC Protein assay (Bio-Rad, Hercules, Calif., USA). The results were expressed in relative light units (RLU) per milligram of total protein.
# Erk1 and Erk2 = assay: Phospho-Erk1/Erk2 (p44/p42 MAPK) immunoblot in PC12 cells; type: cell-based, rat; details: for effect of TrkA inhibitor pre-treatment on NL4- and NL4-10K-induced phosphorylation of Erk1 and Erk2: 100 nM K-252a or 10 μM AG879, 10 min pre-incubation
# Experimental: (§1) Immunoblotting experiments were conducted to test whether the chimeric polypeptides could, like NGF, induce autophosphorylation of TrkA and activation of its signal transduction pathways. PC12 cells were seeded in 6-well plates at a density of 2×10^6 cells/well and cultured in RPMI 1640 containing 0.5% FBS and 0.25% horse serum for 2 days. The low serum concentrations were necessary to reduce the basal levels of phosphorylation. The medium was refreshed two hours before beginning treatment. The cells were incubated with the polypeptides or NGF in serum-free medium for 15–20 min. The cells were then washed in PBS, lysed, and sonicated. The cell lysates were resolved by SDS-PAGE and transferred to a nitrocellulose membrane for immunoblotting. The primary antibodies used include Phospho-TrkA (Tyr490) antibody, Phospho-p44/p42 MAPK (Thr202/Tyr204) monoclonal antibody, and Phospho-Akt (Ser473) monoclonal antibody, all obtained from Cell Signaling Technology (Beverly, Mass., USA). Colorimetric detection was performed by standard techniques after using horse-radish peroxidase-conjugated secondary antibodies. In some experiments, TrkA tyrosine kinase inhibitors K-252a or AG879 (both from Calbiochem, La Jolla, Calif., USA) were used. In these cases, PC12 cells were incubated with 100 nM K-252a or 10 μM AG879 before addition of polypeptides or NGF.
# Akt = assay: Phospho-Akt immunoblot in PC12 cells; type: cell-based, rat; details: 5 μM peptide, 20 min
# Experimental: as §1
# TrkA = target: T1, TrkA (Rattus norvegicus, UniProt P35739); assay: Phospho-TrkA immunoblot in PC12 cells; type: cell-based; details: 5 μM peptide, 20 min
# T1 construct: endogenous in cells; host or cells: PC12 (rat pheochromocytoma, ATCC)
# T1 sequence (P35739 33-799): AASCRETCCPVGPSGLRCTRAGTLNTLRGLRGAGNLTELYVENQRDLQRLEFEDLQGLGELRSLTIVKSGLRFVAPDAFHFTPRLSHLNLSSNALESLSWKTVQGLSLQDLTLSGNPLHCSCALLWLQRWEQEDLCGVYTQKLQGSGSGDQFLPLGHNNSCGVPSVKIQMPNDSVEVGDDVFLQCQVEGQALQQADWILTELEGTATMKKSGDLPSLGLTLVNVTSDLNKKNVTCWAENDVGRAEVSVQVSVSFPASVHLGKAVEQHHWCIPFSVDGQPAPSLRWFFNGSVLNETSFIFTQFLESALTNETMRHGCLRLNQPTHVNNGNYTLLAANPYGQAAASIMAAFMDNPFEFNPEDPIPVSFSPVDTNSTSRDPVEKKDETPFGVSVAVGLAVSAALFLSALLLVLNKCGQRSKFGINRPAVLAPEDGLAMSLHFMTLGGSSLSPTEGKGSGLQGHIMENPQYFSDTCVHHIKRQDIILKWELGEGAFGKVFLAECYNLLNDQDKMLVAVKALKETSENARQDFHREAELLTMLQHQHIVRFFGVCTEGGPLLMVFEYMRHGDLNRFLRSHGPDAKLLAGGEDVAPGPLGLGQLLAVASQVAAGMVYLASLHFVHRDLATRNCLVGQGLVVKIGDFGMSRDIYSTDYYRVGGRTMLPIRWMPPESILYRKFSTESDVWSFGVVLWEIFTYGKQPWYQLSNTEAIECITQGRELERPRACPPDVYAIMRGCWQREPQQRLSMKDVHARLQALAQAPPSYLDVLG
# Experimental: as §1
# PC12 cells = assay: PC12 cell survival assay (MTT, serum-free medium); type: cell-based, rat; details: differentiated PC12, serum and NGF deprived 4 days; 0.125 to 2.5 μM; NGF 10 ng/ml control
# Experimental: Undifferentiated or differentiated (by 6-day treatment with 10 ng/ml NGF) PC12 cells seeded onto collagen-coated 96-well plates were exposed to serum-free RPMI-1640 medium containing either NGF or various concentrations of chimeric polypeptides. After 3–4 days of incubation, cell viability was measured by the standard MTT assay. Cell survival was expressed as a percentage of the viability of the NGF-treated control.
# plasmid DNA [2] = assay: DNA retardation assay (agarose gel electrophoresis); type: binding
# Experimental: This assay qualitatively assesses the ability of a polypeptide or polycation to bind to DNA and thus to retard its migration (by decreasing its charge/mass ratio) through an agarose gel under electrophoresis. For a range of N/P ratios, polypeptide was added to 0.1 μg of plasmid DNA made up to 20 μl with either HEPES-buffered saline (HBS, 150 mM NaCl, 29 mM HEPES, pH 7.3) or 5% glucose. The mixtures were vortexed and incubated at room temperature for 30 minutes before being subjected to electrophoresis in a 0.8–1.0% Tris-borate-EDTA agarose gel stained with ethidium bromide for visualization under ultraviolet light.
# primary cortical neurons = assay: Gene delivery to primary cultures of cortical neurons; type: cell-based, rat
# Experimental: Primary cultures of neurons were established from the cortices of embryonic Wistar rats at gestational day 20. Cortices freed of meninges were dissected and individual cells were dispersed mechanically by trituration of minced tissue in 3 ml DMEM medium supplemented with 2% FBS. The suspension was allowed to settle in a centrifuge tube. The cells in the supernatant were collected by centrifugation and resuspended gently in DMEM with 10% FBS. Viability of the cells was assessed prior to plating using trypan blue. Cells were plated onto microplates pre-coated with poly-L-lysine/laminin at a density of 7.5×10^5 viable cells/cm^2. After a two-hour incubation period to allow neurons to attach, the medium and unattached cells were removed and replaced by serum-free DMEM/F12 medium with 1% N2 supplement (Invitrogen, Carlsbad, Calif., USA). The cell were then incubated at 37° C. in 5% CO2 in a humidified incubator. After 2–5 days of culture, the neuron cells were used for transfection experiments. Gene delivery complexes were also tested on primary cultures of cortical neurons and glial cells in a similar fashion. […] Four hours later, an equal volume of DMEM-F12/N2 was added. One to two days after transfection, the cell culture medium was removed and the cells were rinsed in phosphate-buffered saline (PBS). Enough Reporter Lysis Buffer (Promega, Wisconsin, Md., USA) to cover the bottom surface was added to each well (50 μl/well for 48-well plates). After one freeze-thaw cycle, the lysates were tested for luciferase activity using the Luciferase Assay System (Promega) and a single-tube luminometer (Berthold Lumat L B 9507, Bad Wildbad, Germany). The total protein concentration of each lysate was determined using the DC Protein assay (Bio-Rad, Hercules, Calif., USA). The results were expressed in relative light units (RLU) per milligram of total protein.
# primary glial cells = assay: Gene delivery to primary cultures of glial cells; type: cell-based, rat
# Experimental: Primary cultures of glial cells were established from the cortices of 20-day old embryonic Wistar rats. Individual cells were collected as described above. The cells were plated at a density of 4×10^5 viable cells/cm^2 on poly-L-lysine/laminin coated dishes and grown to confluence for 7 days in DMEM/F12 medium supplemented with 10% FCS. The day before transfection, the cells were detached and plated into coated microplates at a density of 2.5×10^4 cells per well. Gene delivery complexes were also tested on primary cultures of cortical neurons and glial cells in a similar fashion. […] Four hours later, an equal volume of DMEM-F12/N2 was added. One to two days after transfection, the cell culture medium was removed and the cells were rinsed in phosphate-buffered saline (PBS). Enough Reporter Lysis Buffer (Promega, Wisconsin, Md., USA) to cover the bottom surface was added to each well (50 μl/well for 48-well plates). After one freeze-thaw cycle, the lysates were tested for luciferase activity using the Luciferase Assay System (Promega) and a single-tube luminometer (Berthold Lumat L B 9507, Bad Wildbad, Germany). The total protein concentration of each lysate was determined using the DC Protein assay (Bio-Rad, Hercules, Calif., USA). The results were expressed in relative light units (RLU) per milligram of total protein.
# plasmid DNA [3] = assay: Atomic force microscopy of polypeptide-DNA complexes; type: physicochemical; details: N/P ratio of 10
# Experimental: DNA samples, polypeptide-DNA complexes, and polypeptide-polycation-DNA complexes were prepared with a DNA concentration of 0.02 mg/ml. The samples were diluted ten-fold in HPLC-grade water, and 20 μl of each sample was deposited onto mica discs. After one minute, the mica discs were washed with HPLC-grade water and dried in a stream of filtered air. Images were acquired on a Nanoscope IIIa atomic force microscope (Digital Instruments, Santa Barbara, Calif., USA) operating in tapping mode in air, using Nanoprobe Silicon tips (Digital Instruments).
# [4] = 0.25 μg/well pCAGluc, PEI600-based complexes
# [5] = pCAGluc/SPKR4BL1-2 without PEI600, 0.25 μg/well
molecule,measurement,setting,value
"KKKKKKKKKK (artificial sequence lysine 10) [10K, ten consecutive lysine residues, reference compound]",dose-response of transfection efficiency with increasing amount of peptide,[1],Neither NL4 (targeting domain only) nor 10K (DNA-binding domain only) nor a mixture of the two exhibited this dose-responsive trend
same,reduction of efficiency of NL4-10K/pCAGluc gene delivery by excess free competitor,"[1]; competitor present during transfection, complexes at N/P ratio of 5, 100 μM chloroquine",did not have a significant effect
"NGF: nerve growth factor, neurotrophin; competitor and positive control",effect of added NGF on transfection by (SPKR)4/DNA/PEI600,[1]; NGF 200 ng/ml,no significant effect
same,effect of added NGF on transfection by SPKR4NL1-2/DNA/PEI600,[1]; NGF 200 ng/ml during transfection,greatly reduces the transfection efficiency
"CC(C)(C)c1cc(/C=C(\C#N)C(N)=S)cc(C(C)(C)C)c1O [AG879, reference compound]",effect of TrkA inhibitor pre-treatment on NL4- and NL4-10K-induced phosphorylation of Erk1 and Erk2,Erk1 and Erk2,greatly reduced
"NL4: loop 4 of NGF and the flanking β-sheet sequences, amino acids 80–108; targeting domain only (CTTTHTFVKALTMDGKQAAWRFIRIDTAC; disulfide 1-29)",dose-response of transfection efficiency with increasing amount of peptide,[1],Neither NL4 (targeting domain only) nor 10K (DNA-binding domain only) nor a mixture of the two exhibited this dose-responsive trend
same,activation (phosphorylation) of Akt,Akt,induced activation
same,activation (phosphorylation) of Erk 1 and Erk 2,"Erk1 and Erk2; 5 μM peptide, 20 min",induced activation
same,activation (phosphorylation) of TrkA,TrkA,induced activation
same,cell survival rate as % of optimal NGF-promoted survival,PC12 cells,68–109%
same,DNA binding / retardation of DNA migration (in words),plasmid DNA [2],does not retard DNA migration
"SPKRSPKRSPKRSPKR (artificial sequence SPKR4) [(SPKR)4, reference compound]",transgene expression (in words),primary cortical neurons; [4],enhances transgene expression
same,transgene expression (in words),primary glial cells; [4],enhances transgene expression
"COC(=O)[C@@]1(O)C[C@H]2O[C@]1(C)n1c3ccccc3c3c4c(c5c6ccccc6n2c5c31)C(=O)NC4 [K-252a, reference compound]",effect of K-252a on Erk phosphorylation induced by 8 μM SPKR4NL1-2,"Erk1 and Erk2; 0, 10, 20, 50 and 100 nM K-252a, 10 min pre-incubation",reduced and eventually eliminated
same,effect of TrkA inhibitor pre-treatment on NL4- and NL4-10K-induced phosphorylation of Erk1 and Erk2,Erk1 and Erk2,greatly reduced
B1,increase of transgene expression with increasing SPKR4BL1-2,"primary cortical neurons; PEI600 fixed at N/P ratio of 10, 0.25 μg/well pCAGluc, highest ratio used",up to 500 fold
same,diameter of condensed plasmid DNA particles,plasmid DNA [3],under 200 nm
same,transgene expression relative to PEI600/DNA,primary glial cells; [5],50 times
same,transgene expression relative to naked DNA,primary glial cells; [5],180 times
same,N/P ratio at which plasmid DNA is completely retarded (complex immobile),"plasmid DNA [2]; 0.1 μg plasmid DNA, agarose gel",2 N/P ratio
same,peptide/DNA amount equivalent to the N/P ratio of complete retardation,plasmid DNA [2]; N/P ratio of 2,0.8 nmol/ug DNA
